Source: patent US11414416B1, “Compounds and uses thereof” (Foghorn Therapeutics Inc., priority 2019, dated 2022)

Legend:
[1] = target: BRD9 bromodomain (Homo sapiens (Human), UniProt Q9H8M2); test: BRD9 bromodomain TR-FRET competition binding assay; conditions: Table 4; competition with biotinylated ligand, 3 nM Flag-BRD9, 90 minutes
Procedure: Procedure: His-Flag-BRD9 (P133-K239; Swiss Prot Q9H8M2; SEQ ID NO:1 mgsshhhhhhenlyfq/gdykddddkgslevlfqg/[…] […]) was cloned, expressed, purified, and then treated with TEV protease. Cleaved His tag was removed by purification. The binding of a biotinylated small molecule ligand of BRD9 was assessed via the LANCE® TR-FRET platform (PerkinElmer), and the compounds were assayed for inhibitory activity against this interaction.
A mixture of biotinylated-ligand and SureLight™ Allophycocyanin-Streptavidin (APC-SA, PerkinElmer AD0201) in 50 mM HEPES (pH 7.4), 50 mM NaCl, 1 mM TCEP (pH 7), 0.01% (v/v) Tween-20, 0.01% (w/v) bovine serum albumin was added to a white 384-well PerkinElmer Proxiplate Plus plate. DMSO or 3-fold serially diluted compounds were then added to the Proxiplate followed by addition of Flag-BRD9. After a 10-minute incubation at room temperature, Eu-W1024 anti-FLAG (PerkinElmer, AD0273) was added. The final reaction mixture that contained 3.75 nM biotinylated ligand, 3 nM Flag-BRD9, 7.5 nM SureLight™ Allophycocyanin-Streptavidin, and 0.2 nM Eu-W1024 anti-FLAG was incubated at room temperature for 90 minutes.
Results: The plates were then read on a PerkinElmer Envision plate reader to determine the ratio of emission at 665 nm over 615 nm. […]

[2] = target: Nanoluciferase-BRD9 fusion protein (Homo sapiens (Human), UniProt Q9H8M2); test: SYO1 BRD9 NanoLuc degradation assay; format: cell-based; conditions: Table 5A, SYO-1 cells expressing 3×FLAG-NLuc-BRD9, 6 hours; for DC50: read-out: SYO1 BRD9-NanoLuc degradation IC50
Method in brief: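 Degradation was read as loss of nanoluciferase signal (Nano-Glo) after 6 h compound exposure in a stable SYO-1 line carrying 3×FLAG-NLuc-BRD9 (8000 cells/well). Normalised between DMSO (high) and a 1 μM known BRD9 degrader (low).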

Sequence of BRD9 bromodomain (Q9H8M2 133-239): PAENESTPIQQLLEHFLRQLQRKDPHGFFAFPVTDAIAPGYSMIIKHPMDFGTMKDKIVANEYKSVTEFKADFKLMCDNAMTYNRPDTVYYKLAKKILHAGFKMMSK
Sequence of Nanoluciferase-BRD9 fusion protein (Q9H8M2 whole entry, the tested form may be a part): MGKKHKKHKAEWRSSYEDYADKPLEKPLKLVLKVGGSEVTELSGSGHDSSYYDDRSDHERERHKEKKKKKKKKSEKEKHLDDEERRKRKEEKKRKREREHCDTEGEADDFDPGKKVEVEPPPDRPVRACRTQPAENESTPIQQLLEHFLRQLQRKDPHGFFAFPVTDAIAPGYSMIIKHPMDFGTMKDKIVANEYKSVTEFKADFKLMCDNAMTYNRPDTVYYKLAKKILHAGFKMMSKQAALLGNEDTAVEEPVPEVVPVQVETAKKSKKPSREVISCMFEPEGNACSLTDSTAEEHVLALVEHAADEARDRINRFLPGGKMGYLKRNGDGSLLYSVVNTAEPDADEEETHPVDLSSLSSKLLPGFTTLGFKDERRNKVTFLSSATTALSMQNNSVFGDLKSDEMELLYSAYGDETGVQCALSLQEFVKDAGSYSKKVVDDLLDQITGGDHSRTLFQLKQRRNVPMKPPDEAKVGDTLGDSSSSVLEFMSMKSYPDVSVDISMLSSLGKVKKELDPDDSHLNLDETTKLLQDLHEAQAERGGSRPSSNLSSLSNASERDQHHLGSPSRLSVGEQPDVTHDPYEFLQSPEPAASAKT

| Compound | IC50 [1] | IC50 [2] | DC50 [2] |
| --- | --- | --- | --- |
| COc1cc(-c2cn(C)c(=O)c3cnccc23)cc(OC)c1CN1CCN(CCCOc2ccc3c(c2)C(=O)N(C2CCC(=O)NC2=O)C3=O)CC1 (stereo not shown) [Compound D53, 5-[3-(4-[[2,6-dimethoxy-4-(2-methyl-1-oxo-2,7-naphthyridin-4-yl)phenyl]methyl]piperazin-1-yl)propoxy]-2-(2,6-dioxopiperidin-3-yl)isoindole-1,3-dione] | < 10 nM | < 10 nM |  |
| COc1cc(-c2cn(C)c(=O)c3cnccc23)cc(OC)c1CN(C)CCCOCCN1CCN(c2ccc3c(c2)C(=O)N(C2CCC(=O)NC2=O)C3=O)CC1 (stereo not shown) [Compound D70, 5-(4-[2-[3-([[2,6-dimethoxy-4-(2-methyl-1-oxo-2,7-naphthyridin-4-yl)phenyl]methyl](methyl)amino)propoxy]ethyl]piperazin-1-yl)-2-(2,6-dioxopiperidin-3-yl)isoindole-1,3-dione formic acid] | 10 to 100 nM | 10 to 100 nM |  |
| COc1cc(-c2cn(C)c(=O)c3cnccc23)cc(OC)c1CN1CC2(C1)CN(C(=O)CCCOc1cccc3c1C(=O)N(C1CCC(=O)NC1=O)C3=O)C2 (stereo not shown) [Compound D32, 4-(4-(6-(2,6-dimethoxy-4-(2-methyl-1-oxo-1,2-dihydro-2,7-naphthyridin-4-yl)benzyl)-2,6-diazaspiro[3.3]heptan-2-yl)-4-oxobutoxy)-2-(2,6-dioxopiperidin-3-yl)isoindoline-1,3-dione] | < 10 nM |  | 10 to 100 nM |
| COc1cc(-c2cn(C)c(=O)c3cnccc23)cc(OC)c1CN1CC(C(=O)NCCCCCCCCNC(=O)COc2cccc3c2C(=O)N(C2CCC(=O)NC2=O)C3=O)C1 (stereo not shown) [Compound D4, N-[8-[(1-[[2,6-dimethoxy-4-(2-methyl-1-oxo-1,2-dihydro-2,7-naphthyridin-4-yl)phenyl]methyl]azetidin-3-yl)formamido]octyl]-2-[[2-(2,6-dioxopiperidin-3-yl)-1,3-dioxo-2,3-dihydro-1H-isoindol-4-yl]oxy]acetamide formic acid] | < 10 nM |  | 10 to 100 nM |
| COc1cc(-c2cn(C)c(=O)c3cnccc23)cc(OC)c1CN1CCC2(CC1)CN(C(=O)CCCCOc1cccc3c1C(=O)N(C1CCC(=O)NC1=O)C3=O)CCO2 (stereo not shown) [Compound D40, 4-[[5-(9-[[2,6-dimethoxy-4-(2-methyl-1-oxo-2,7-naphthyridin-4-yl)phenyl]methyl]-1-oxa-4,9-diazaspiro[5.5]undecan-4-yl)-5-oxopentyl]oxy]-2-(2,6-dioxopiperidin-3-yl)isoindole-1,3-dione formic acid] | < 10 nM | < 10 nM |  |
| COc1cc(-c2cn(C)c(=O)c3cnccc23)cc(OC)c1CN1CC2C1CCN2C(=O)CCOCCOc1ccc2c(c1)C(=O)N(C1CCC(=O)NC1=O)C2=O (stereo not shown) [Compound D128] | 10 to 100 nM | < 10 nM |  |
| COc1cc(-c2cn(C)c(=O)c3cnccc23)cc(OC)c1CN1CCC12CN(C(=O)CCOCCOc1cccc3c1C(=O)N(C1CCC(=O)NC1=O)C3=O)C2 (stereo not shown) [Compound D86] | 10 to 100 nM | 100 to 1000 nM |  |
| COc1cc(-c2cn(C)c(=O)c3cnccc23)cc(OC)c1CN(C)C1CCC12CCN(C(=O)CCOCCOc1ccc3c(c1)C(=O)N(C1CCC(=O)NC1=O)C3=O)CC2 (stereo not shown) [Compound D173] | 10 to 100 nM | < 10 nM |  |
| COc1cc(-c2cn(C)c(=O)c3cnccc23)cc(OC)c1CN1CCC(OC2CCN(C(=O)CCOCCOc3ccc4c(c3)C(=O)N(C3CCC(=O)NC3=O)C4=O)C2)CC1 (stereo not shown) [Compound D130] | < 10 nM | < 10 nM |  |
| COc1cc(-c2cn(C)c(=O)c3cnccc23)cc(OC)c1CN1CC(CCNC(=O)CCOCCOc2ccc3c(c2)C(=O)N(C2CCC(=O)NC2=O)C3=O)C1 (stereo not shown) [Compound D117] | < 10 nM |  | 100 to 1000 nM |
| COc1cc(-c2cn(C)c(=O)c3cnccc23)cc(OC)c1CN1CCC12CCN(C(=O)CCOCCOc1ccc3c(c1)C(=O)N(C1CCC(=O)NC1=O)C3=O)C2 (stereo not shown) [Compound D127] | < 10 nM |  | 100 to 1000 nM |
| COc1cc(-c2cn(C)c(=O)c3cnccc23)cc(OC)c1CN1CC(S(=O)(=O)NCCCCCCCCNc2cccc3c2C(=O)N(C2CCC(=O)NC2=O)C3=O)C1 (stereo not shown) [Compound D12, 1-[[2,6-dimethoxy-4-(2-methyl-1-oxo-1,2-dihydro-2,7-naphthyridin-4-yl)phenyl]methyl]-N-(8-[[2-(2,6-dioxopiperidin-3-yl)-1,3-dioxo-2,3-dihydro-1H-isoindol-4-yl]amino]octyl)azetidine-3-sulfonamide] | < 10 nM | < 10 nM |  |
| COc1cc(-c2cn(C)c(=O)c3cnccc23)cc(OC)c1CN(C)C12CC(NC(=O)CCCCCOc3cccc4c3C(=O)N(C3CCC(=O)NC3=O)C4=O)(C1)C2 (stereo not shown) [Compound D60, N-[3-([[2,6-dimethoxy-4-(2-methyl-1-oxo-2,7-naphthyridin-4-yl)phenyl]methyl](methyl)amino)bicyclo[1.1.1]pentan-1-yl]-6-[[2-(2,6-dioxopiperidin-3-yl)-1,3-dioxoisoindol-4-yl]oxy]hexanamide formic acid] | < 10 nM | < 10 nM |  |
| COc1cc(-c2cn(C)c(=O)c3cnccc23)cc(OC)c1CN1CC(C(=O)N(C)CCCCCNc2cccc3c2C(=O)N(C2CCC(=O)NC2=O)C3=O)C1 (stereo not shown) [Compound D15, 1-[[2,6-dimethoxy-4-(2-methyl-1-oxo-1,2-dihydro-2,7-naphthyridin-4-yl)phenyl]methyl]-N-(5-[[2-(2,6-dioxopiperidin-3-yl)-1,3-dioxo-2,3-dihydro-1H-isoindol-4-yl]amino]pentyl)-N-methylazetidine-3-carboxamide formic acid] | < 10 nM | < 10 nM |  |
| COc1cc(-c2cn(C)c(=O)c3cnccc23)cc(OC)c1CN1CCC(COC2CCN(C(=O)CCOCCOc3ccc4c(c3)C(=O)N(C3CCC(=O)NC3=O)C4=O)C2)CC1 (stereo not shown) [Compound D124] | < 10 nM | < 10 nM |  |
| COc1cc(-c2cn(C)c(=O)c3cnccc23)cc(OC)c1CN1CC(C(=O)N(C)CCCCCCCCNc2cccc3c2C(=O)N(C2CCC(=O)NC2=O)C3=O)C1 (stereo not shown) [Compound D14, 1-[[2,6-dimethoxy-4-(2-methyl-1-oxo-1,2-dihydro-2,7-naphthyridin-4-yl)phenyl]methyl]-N-(8-[[2-(2,6-dioxopiperidin-3-yl)-1,3-dioxo-2,3-dihydro-1H-isoindol-4-yl]amino]octyl)-N-methylazetidine-3-carboxamide] | < 10 nM | < 10 nM |  |
| COc1cc(-c2cn(C)c(=O)c3cnccc23)cc(OC)c1CN1CCC12CCN(C(=O)CCOCCOc1cccc3c1C(=O)N(C1CCC(=O)NC1=O)C3=O)C2 (stereo not shown) [Compound D95] | 10 to 100 nM | 100 to 1000 nM |  |
| COc1cc(-c2cn(C)c(=O)c3cnccc23)cc(OC)c1CN1CC2(CCC2NC(=O)CCOCCOc2ccc3c(c2)C(=O)N(C2CCC(=O)NC2=O)C3=O)C1 (stereo not shown) [Compound D115] | 10 to 100 nM | 100 to 1000 nM |  |
| COc1cc(-c2cn(C)c(=O)c3cnccc23)cc(OC)c1CN1CC2(CCC2NC(=O)CCOCCOc2cccc3c2C(=O)N(C2CCC(=O)NC2=O)C3=O)C1 (stereo not shown) [Compound D84] | 10 to 100 nM | > 1000 nM |  |
| COc1cc(-c2cn(C)c(=O)c3cnccc23)cc(OC)c1CN(C)CC12CC(C(=O)NCCCCCNc3cccc4c3C(=O)N(C3CCC(=O)NC3=O)C4=O)(C1)C2 (stereo not shown) [Compound D56, 3-[([[2,6-dimethoxy-4-(2-methyl-1-oxo-2,7-naphthyridin-4-yl)phenyl]methyl](methyl)amino)methyl]-N-(5-[[2-(2,6-dioxopiperidin-3-yl)-1,3-dioxoisoindol-4-yl]amino]pentyl)bicyclo[1.1.1]pentane-1-carboxamide] | < 10 nM | < 10 nM |  |
| COc1cc(-c2cn(C)c(=O)c3cnccc23)cc(OC)c1CN1CCC(C2CCN(C(=O)CCOCCOc3ccc4c(c3)C(=O)N(C3CCC(=O)NC3=O)C4=O)C2)CC1 (stereo not shown) [Compound D129] | < 10 nM | < 10 nM |  |
| COc1cc(-c2cn(C)c(=O)c3cnccc23)cc(OC)c1CN1CCC2(CCN(C(=O)CCOCCOc3cccc4c3C(=O)N(C3CCC(=O)NC3=O)C4=O)CC2)C1 (stereo not shown) [Compound D89] | < 10 nM | < 10 nM |  |
| COc1cc(-c2cn(C)c(=O)c3cnccc23)cc(OC)c1CNCCOCC(=O)N1CC(COc2ccc3c(c2)C(=O)N(C2CCC(=O)NC2=O)C3=O)C1 (stereo not shown) [Compound D74, 5-[(1-[2-[2-([[2,6-dimethoxy-4-(2-methyl-1-oxo-2,7-naphthyridin-4-yl)phenyl]methyl]amino)ethoxy]acetyl]azetidin-3-yl)methoxy]-2-(2,6-dioxopiperidin-3-yl)isoindole-1,3-dione formic acid] | < 10 nM |  | 100 to 1000 nM |
